Results reported in patent US9745310B2 (SK BIOPHARMACEUTICALS CO., LTD., priority 2015, dated 2017).

Molecular target: human mGluR5 receptor (Homo sapiens (Human), UniProt P41594)
Experiment: Calcium influx assay based on fluorescence (mGluR5 PAM activity)
Conditions: human mGluR5 receptor-overexpressed HEK293 cell line; L-glutamate EC20; Fluo-4, FLIPR
Procedure, shortened: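 HEK293 cells overexpressing human mGluR5, loaded 1 h with Fluo-4 at 37° C. Compounds (10 μM to 10 nM final, 0.1–0.2% DMSO) added with an EC20 concentration of L-glutamate, and Ca2+ response read by FLIPR at room temperature. Activity scaled as 0% for EC20 glutamate alone and 100% for glutamate maximum.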

Chain of human mGluR5 receptor (P41594 21-1212): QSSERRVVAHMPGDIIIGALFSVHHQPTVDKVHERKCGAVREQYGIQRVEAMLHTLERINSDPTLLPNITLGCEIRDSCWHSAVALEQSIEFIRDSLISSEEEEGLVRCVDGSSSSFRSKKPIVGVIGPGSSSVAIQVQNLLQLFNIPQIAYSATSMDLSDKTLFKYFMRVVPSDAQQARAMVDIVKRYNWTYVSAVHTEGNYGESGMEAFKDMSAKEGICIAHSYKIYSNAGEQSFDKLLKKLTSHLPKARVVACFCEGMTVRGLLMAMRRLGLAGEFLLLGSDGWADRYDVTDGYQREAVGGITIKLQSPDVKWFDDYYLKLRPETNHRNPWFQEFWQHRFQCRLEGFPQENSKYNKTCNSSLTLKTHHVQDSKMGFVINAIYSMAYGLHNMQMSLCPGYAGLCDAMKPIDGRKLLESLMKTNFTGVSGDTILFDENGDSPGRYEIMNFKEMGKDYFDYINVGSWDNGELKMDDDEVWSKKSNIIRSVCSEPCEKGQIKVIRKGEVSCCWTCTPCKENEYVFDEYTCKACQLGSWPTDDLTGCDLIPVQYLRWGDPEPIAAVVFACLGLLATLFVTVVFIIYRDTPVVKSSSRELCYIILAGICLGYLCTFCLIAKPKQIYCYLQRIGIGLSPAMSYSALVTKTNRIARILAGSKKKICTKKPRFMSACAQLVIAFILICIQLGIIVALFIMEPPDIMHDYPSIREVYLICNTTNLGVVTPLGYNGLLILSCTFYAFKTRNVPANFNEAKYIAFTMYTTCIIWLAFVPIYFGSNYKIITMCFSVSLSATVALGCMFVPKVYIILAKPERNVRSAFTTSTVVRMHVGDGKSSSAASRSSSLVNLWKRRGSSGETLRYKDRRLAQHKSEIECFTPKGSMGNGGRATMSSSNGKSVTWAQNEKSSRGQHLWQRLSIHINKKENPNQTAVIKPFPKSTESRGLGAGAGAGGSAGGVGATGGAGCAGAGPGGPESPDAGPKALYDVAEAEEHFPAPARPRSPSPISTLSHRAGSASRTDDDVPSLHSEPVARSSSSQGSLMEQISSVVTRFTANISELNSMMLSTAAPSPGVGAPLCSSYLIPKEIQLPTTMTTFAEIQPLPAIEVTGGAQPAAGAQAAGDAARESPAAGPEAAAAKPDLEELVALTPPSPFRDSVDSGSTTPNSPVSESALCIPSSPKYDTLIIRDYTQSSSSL

EC50 [nM]	SMILES
100 to 500	COCc1cc(F)ccc1-c1cnc2nc(COc3ccccn3)cn2c1 [Example 141, 6-[4-fluoro-2-(methoxymethyl)phenyl]-2-(2-pyridyloxymethyl)imidazo[1,2-a]pyrimidine]
100 to 500	COc1cc(F)ccc1-c1cnc2nc(COc3cc(F)ccn3)cn2c1 [Example 118, 6-(4-fluoro-2-methoxy-phenyl)-2-[(4-fluoro-2-pyridyl)oxymethyl)imidazo[1,2-a]pyrimidine]
100 to 500	Cc1cc(F)ccc1-c1cnc2nc(COc3ccnc(F)c3)cn2n1 [Example 184, 2-(4-fluoro-2-methylphenyl)-6-((2-fluoropyridin-4-yloxy)methyl)imidazo[1,2-b][1,2,4]triazine]
100 to 500	Cc1cc(Cl)ccc1-c1cnc2nc(COc3ccc(F)cn3)cn2c1 [Example 127, 6-(4-chloro-2-methyl-phenyl)-2-[(5-fluoro-2-pyridyl)oxymethyl)imidazo[1,2-a]pyrimidine]
500 to 1000	Cc1ccc(F)cc1-c1cnc2nc(COc3ccc(F)cc3)cn2c1 [Example 61, 6-(5-fluoro-2-methyl-phenyl)-2-[(4-fluorophenoxy)methyl]imidazo[1,2-a]pyrimidine]
500 to 1000	Cc1cc(F)ccc1-c1cnc2nc(COc3cccnc3F)cn2c1 [Example 159, 6-(4-fluoro-2-methylphenyl)-2-(2-fluoropyridin-3-yloxymethyl)imidazo[1,2-a]pyrimidine]
100 to 500	Fc1cc(OCc2cn3cc(-c4ccccc4F)cnc3n2)ccn1 [Example 166, 6-(2-fluorophenyl)-2-(2-fluoropyridin-4-yloxymethyl)imidazo[1,2-a]pyrimidine]
100 to 500	Fc1ccc(OCc2cn3cc(-c4ccc(F)nc4)cnc3n2)cc1 [Example 51, 2-[(4-fluorophenoxy)methyl]-6-(6-fluoro-3-pyridyl)imidazo[1,2-a]pyrimidine]
100 to 500	Fc1ccc(-c2cnc3nc(COc4ccccn4)cn3c2)c(C(F)(F)F)c1 [Example 113, 6-[4-fluoro-2-(trifluoromethyl)phenyl]-2-(2-pyridyloxymethyl)imidazo[1,2-a]pyrimidine]
100 to 500	Fc1ccc(OCc2cn3cc(-c4ccc(F)cc4F)cnc3n2)cc1 [Example 47, 6-(2,4-difluorophenyl)-2-(4-fluorophenoxymethyl)imidazo[1,2-a]pyrimidine]
100 to 500	Nc1ccccc1-c1cnc2nc(COc3ccc(F)cc3)cn2c1 [Example 66, 2-[2-[(4-fluorophenoxy)methyl]imidazo[1,2-a]pyrimidin-6-yl]aniline]
100 to 500	Cc1ccccc1-c1cnc2nc(COc3ccc(F)cn3)cn2c1 [Example 126, 2-[(5-fluoro-2-pyridyl)oxymethyl]-6-(o-tolyl)imidazo[1,2-a]pyrimidine]
500 to 1000	Fc1ccc(-c2cnc3nc(COc4cccnc4)cn3c2)cc1 [Example 146, 6-(4-fluorophenyl)-2-(pyridin-3-yloxymethyl)imidazo[1,2-a]pyrimidine]
100 to 500	Oc1cc(-c2cnc3nc(COc4cccc(F)c4)cn3c2)ccc1F [Example 43, 6-(4-fluoro-3-hydroxyphenyl)-2-(3-fluorophenoxymethyl)-imidazo[1,2-a]pyrimidine]
100 to 500	Oc1ccc(OCc2cn3cc(-c4ccc(F)cc4)cnc3n2)cc1 [Example 52, 4-[[6-(4-fluorophenyl)imidazo[1,2-a]pyrimidin-2-yl]methoxy]phenol]
100 to 500	Oc1cc(F)ccc1-c1cnc2nc(COc3cncc(F)c3)cn2c1 [Example 156, 6-(4-fluoro-2-hydroxyphenyl)-2-(5-fluoropyridin-3-yloxymethyl)imidazo[1,2-a]pyrimidine]

EC50 [nM]	SMILES
100 to 500	OCc1cc(F)ccc1-c1cnc2nc(COc3ccnc(F)c3)cn2c1 [Example 170, 6-(4-fluoro-2-hydroxymethylphenyl)-2-(2-fluoropyridin-4-yloxymethyl)imidazo[1,2-a]pyrimidine]
100 to 500	Fc1cccc(-c2cnc3nc(COc4ccccc4)cn3c2)c1F [Example 7, 6-(2,3-difluorophenyl)-2-phenoxymethylimidazo[1,2-a]pyrimidine]
100 to 500	Cc1ccncc1-c1cnc2nc(COc3ccccc3)cn2c1 [Example 32, 6-(4-methylpyridin-3-yl)-2-phenoxymethylimidazo[1,2-a]pyrimidine]
100 to 500	OCc1cc(C(F)(F)F)ccc1-c1cnc2nc(COc3ccccn3)cn2c1 [Example 142, [2-[2-(2-pyridyloxymethyl)imidazo[1,2-a]pyrimidin-6-yl]-5-(trifluoromethyl)phenyl]methanol]
100 to 500	Fc1ccc(OCc2cn3cc(-c4ccccc4)cnc3n2)cc1 [Example 56, 2-[(4-fluorophenoxy)methyl]-6-phenyl-imidazo[1,2-a]pyrimidine]
100 to 500	Cc1cc(F)ncc1-c1cnc2nc(COc3ccccc3)cn2c1 [Example 38, 6-(6-fluoro-4-methyl-3-pyridyl)-2-phenoxymethylimidazo[1,2-a]pyrimidine]
100 to 500	Cc1cc(Cl)ccc1-c1cnc2nc(COc3ccccn3)cn2n1 [Example 190, 2-(4-chloro-2-methyl-phenyl)-6-(2-pyridyloxymethyl)imidazo[1,2-b][1,2,4]triazine]
100 to 500	Nc1ccccc1-c1cnc2nc(COc3cccc(F)c3)cn2c1 [Example 44, 6-(2-aminophenyl)-2-(3-fluorophenoxymethyl)imidazo[1,2-a]pyrimidine]
100 to 500	Fc1cccc(OCc2cn3cc(-c4ccnc(F)c4)cnc3n2)c1 [Example 79, 2-[(3-fluorophenoxy)methyl]-6-(2-fluoro-4-pyridyl)imidazo[1,2-a]pyrimidine]
100 to 500	Fc1ccc(-c2cnc3nc(COc4ccnc(F)c4)cn3c2)c(C(F)(F)F)c1 [Example 174, 2-[(2-fluoro-4-pyridyl)oxymethyl]-6-[4-fluoro-2-(trifluoromethyl)phenyl]imidazo[1,2-a]pyrimidine]
100 to 500	Cc1ccc(N)cc1-c1cnc2nc(COc3ccccc3)cn2c1 [Example 11, 6-(3-amino-6-methylphenyl)-2-phenoxymethylimidazo[1,2-a]pyrimidine]
500 to 1000	CC(C)c1ccccc1-c1cnc2nc(COc3ccccn3)cn2c1 [Example 143, 6-(2-isopropylphenyl)-2-(2-pyridyloxymethyl)imidazo[1,2-a]pyrimidine]
100 to 500	Cc1c(F)cccc1-c1cnc2nc(COc3ccccn3)cn2n1 [Example 187, 2-(3-fluoro-2-methyl-phenyl)-6-(2-pyridyloxymethyl)imidazo[1,2-b][1,2,4]triazine]
100 to 500	Nc1cc(F)ccc1-c1cnc2nc(COc3cccc(F)c3)cn2c1 [Example 101, 5-fluoro-2-[2-[(3-fluorophenoxy)methyl]imidazo[1,2-a]pyrimidin-6-yl]aniline]
100 to 500	Cc1cc(F)ccc1-c1cnc2nc(COc3cncc(F)c3)cn2c1 [Example 154, 6-(4-fluoro-2-methylphenyl)-2-(5-fluoro-pyridin-3-yloxymethyl)imidazo[1,2-a]pyrimidine]
